# Assay results: PubChem BioAssay (NCI)
#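 Here, GI50 denotes the concentration required for 50% inhibition of growth. At the TGI there is no net growth.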
# Tests used:
# Assay in all cases: inhibition of tumour cell growth, NCI panel, 384-well format
# SR leukemia = system: SR leukemia
# SNB-19 CNS = system: SNB-19 CNS
# SN12C renal = system: SN12C renal
# PC-3 prostate = system: PC-3 prostate
# K-562 leukemia = system: K-562 leukemia
# HOP-92 NSCLC = system: HOP-92 NSCLC
# MOLT-4 leukemia = system: MOLT-4 leukemia
# CCRF-CEM leukemia = system: CCRF-CEM leukemia
# HL-60(TB) leukemia = system: HL-60(TB) leukemia
# RPMI-8226 leukemia = system: RPMI-8226 leukemia
# NCI-H23 lung = system: NCI-H23 lung
# OVCAR-3 ovarian = system: OVCAR-3 ovarian
compound,measurement,setting,value
Cc1cc(OCCOCCC(F)(F)P(=O)(O)O)ccc1CCc1cnc2c(N)nc3cc(CCC(=O)O)ccc3c2c1,GI50,SR leukemia,9.35 µM
same,TGI,SR leukemia,29.3 µM
same,GI50,SNB-19 CNS,> 100 µM
same,TGI,SNB-19 CNS,> 100 µM
same,GI50,SN12C renal,> 100 µM
same,TGI,SN12C renal,> 100 µM
same,GI50,PC-3 prostate,> 100 µM
same,TGI,PC-3 prostate,> 100 µM
same,GI50,K-562 leukemia,34.3 µM
same,TGI,K-562 leukemia,> 100 µM
same,GI50,HOP-92 NSCLC,> 100 µM
same,TGI,HOP-92 NSCLC,> 100 µM
same,GI50,MOLT-4 leukemia,58.1 µM
same,TGI,MOLT-4 leukemia,> 100 µM
same,GI50,CCRF-CEM leukemia,37.7 µM
same,TGI,CCRF-CEM leukemia,> 100 µM
same,GI50,HL-60(TB) leukemia,> 100 µM
same,TGI,HL-60(TB) leukemia,> 100 µM
same,GI50,RPMI-8226 leukemia,99.7 µM
same,TGI,RPMI-8226 leukemia,> 100 µM
same,GI50,NCI-H23 lung,7.12 µM
same,GI50,OVCAR-3 ovarian,> 100 µM
same,TGI,OVCAR-3 ovarian,> 100 µM
